Laboratory results taken from the supplement of paper PMC12463676, “Small-molecule dissolution of stress granules by redox modulation benefits ALS models” (Nature Chemical Biology, 2025).

Key:
lipoamide = compound: NC(=O)CCCCC1CCSS1 [lipoamide]; assay: thermal stability z-score vs DMSO; higher = more thermally stabilized by treatment; settings: HeLa, lipoamide concentration 100 µM
Procedure: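 Cellular thermal proteome profiling in HeLa cells. Cells were treated with 100 µM lipoamide for 1 h, with or without 1 mM arsenate for a further 1 h, then heated to ten temperatures (37-66.3 °C), and soluble protein was quantified by TMT mass spectrometry relative to 0.1% DMSO controls. The thermal stability score (sum of log2 fold changes minus the abundance score) was transformed to a z-score; mean of n = 3 experiments.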

potassium arsenate = compound: O=[As]([O-])(O)O.[K+] [potassium arsenate]; assay: as above; settings: HeLa; arsenate concentration 1 mM
Procedure: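 Cellular thermal proteome profiling in HeLa cells treated with 1 mM arsenate for 1 h (DMSO pretreatment), heated to ten temperatures (37-66.3 °C). Soluble protein was quantified by TMT mass spectrometry relative to DMSO controls; the thermal stability score was transformed to a z-score; mean of n = 3 experiments.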

[1] = arsenate co-treatment: 1 mM arsenate 1 h
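Note: each temperature applied for 3 min, abundance score taken as mean log2 fold change at the two lowest temperatures, z-score obtained by mean subtraction and division by SD.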

## ATP5F1 (UniProt P24539)
lipoamide; [1]
  thermal stability z-score: -0.648
lipoamide; arsenate co-treatment: none
  thermal stability z-score: -0.133
Potassium arsenate
  thermal stability z-score: 0.226

## HMGB3 (UniProt O15347)
lipoamide; [1]
  thermal stability z-score: 0.138
lipoamide; arsenate co-treatment: none
  thermal stability z-score: 0.323
Potassium arsenate
  thermal stability z-score: 0.0296

## PPP2R2A (UniProt P63151)
lipoamide; [1]
  thermal stability z-score: 0.294
lipoamide; arsenate co-treatment: none
  thermal stability z-score: 0.531
Potassium arsenate
  thermal stability z-score: -0.49

## SDF2 (UniProt Q99470)
lipoamide; [1]
  thermal stability z-score: -3.1
lipoamide; arsenate co-treatment: none
  thermal stability z-score: -2.94
Potassium arsenate
  thermal stability z-score: 0.21

## DRAM2 (UniProt Q6UX65)
lipoamide; [1]
  thermal stability z-score: 0.00378
lipoamide; arsenate co-treatment: none
  thermal stability z-score: -0.247
Potassium arsenate
  thermal stability z-score: 1.26

## ALG14 (UniProt Q96F25)
lipoamide; [1]
  thermal stability z-score: -0.0836
lipoamide; arsenate co-treatment: none
  thermal stability z-score: -0.394
Potassium arsenate
  thermal stability z-score: -0.257

## EIF5 (UniProt P55010)
lipoamide; [1]
  thermal stability z-score: 0.0938
lipoamide; arsenate co-treatment: none
  thermal stability z-score: 0.375
Potassium arsenate
  thermal stability z-score: -1.08

## TRMT1 (UniProt Q9NXH9)
lipoamide; [1]
  thermal stability z-score: 0.222
lipoamide; arsenate co-treatment: none
  thermal stability z-score: -0.116
Potassium arsenate
  thermal stability z-score: -0.423

## PRPF31 (UniProt Q8WWY3)
lipoamide; [1]
  thermal stability z-score: -0.0354
lipoamide; arsenate co-treatment: none
  thermal stability z-score: -0.524
Potassium arsenate
  thermal stability z-score: -0.687

## TMEM11 (UniProt P17152)
lipoamide; [1]
  thermal stability z-score: -0.251
lipoamide; arsenate co-treatment: none
  thermal stability z-score: -0.145
Potassium arsenate
  thermal stability z-score: -1.1

## SMC3 (UniProt Q9UQE7)
Chain of UniProt Q9UQE7 (Q9UQE7 whole entry): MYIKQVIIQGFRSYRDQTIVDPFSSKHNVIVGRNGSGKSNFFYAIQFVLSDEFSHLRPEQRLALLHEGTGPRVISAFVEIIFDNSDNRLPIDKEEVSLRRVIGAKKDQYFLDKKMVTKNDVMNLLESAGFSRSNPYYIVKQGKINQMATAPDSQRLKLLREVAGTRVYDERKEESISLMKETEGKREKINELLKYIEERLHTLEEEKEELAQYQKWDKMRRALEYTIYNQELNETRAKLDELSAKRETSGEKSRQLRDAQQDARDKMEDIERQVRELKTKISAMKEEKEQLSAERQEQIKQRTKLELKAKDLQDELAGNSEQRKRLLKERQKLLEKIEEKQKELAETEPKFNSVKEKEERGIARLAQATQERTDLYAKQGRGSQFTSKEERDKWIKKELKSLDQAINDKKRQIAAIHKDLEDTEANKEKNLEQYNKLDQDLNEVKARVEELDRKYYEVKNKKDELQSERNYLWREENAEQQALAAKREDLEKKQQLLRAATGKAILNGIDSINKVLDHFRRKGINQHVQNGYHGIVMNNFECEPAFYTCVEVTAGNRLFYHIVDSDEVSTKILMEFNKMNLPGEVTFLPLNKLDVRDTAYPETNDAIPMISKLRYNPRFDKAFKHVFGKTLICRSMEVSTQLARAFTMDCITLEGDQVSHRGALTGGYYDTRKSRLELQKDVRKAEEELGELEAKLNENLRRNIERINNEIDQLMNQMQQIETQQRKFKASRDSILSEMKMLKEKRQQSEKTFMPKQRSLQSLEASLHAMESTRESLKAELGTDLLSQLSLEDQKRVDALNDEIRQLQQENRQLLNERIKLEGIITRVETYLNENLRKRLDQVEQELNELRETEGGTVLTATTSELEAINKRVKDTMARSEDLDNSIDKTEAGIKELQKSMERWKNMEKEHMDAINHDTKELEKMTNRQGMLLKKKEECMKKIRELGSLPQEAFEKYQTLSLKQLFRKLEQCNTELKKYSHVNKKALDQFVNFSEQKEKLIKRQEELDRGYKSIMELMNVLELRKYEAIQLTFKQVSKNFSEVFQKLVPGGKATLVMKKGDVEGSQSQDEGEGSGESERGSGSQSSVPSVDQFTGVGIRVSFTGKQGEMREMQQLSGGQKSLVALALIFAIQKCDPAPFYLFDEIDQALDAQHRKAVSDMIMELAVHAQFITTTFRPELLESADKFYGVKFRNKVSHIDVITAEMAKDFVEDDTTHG
lipoamide; [1]
  thermal stability z-score: 0.0797
lipoamide; arsenate co-treatment: none
  thermal stability z-score: 0.288
Potassium arsenate
  thermal stability z-score: -0.181

## SIGMAR1 (UniProt Q99720)
lipoamide; [1]
  thermal stability z-score: 0.596
lipoamide; arsenate co-treatment: none
  thermal stability z-score: 0.0865
Potassium arsenate
  thermal stability z-score: 0.687

## RASSF5 (UniProt Q8WWW0)
lipoamide; [1]
  thermal stability z-score: -0.444
lipoamide; arsenate co-treatment: none
  thermal stability z-score: -0.459
Potassium arsenate
  thermal stability z-score: 0.498

## TUBB2A (UniProt Q13885)
lipoamide; [1]
  thermal stability z-score: 0.383
lipoamide; arsenate co-treatment: none
  thermal stability z-score: 0.458
Potassium arsenate
  thermal stability z-score: 0.692

## EPHA2 (UniProt P29317)
lipoamide; [1]
  thermal stability z-score: -0.528
lipoamide; arsenate co-treatment: none
  thermal stability z-score: -0.029
Potassium arsenate
  thermal stability z-score: -0.211

## ADAT2 (UniProt Q7Z6V5)
lipoamide; [1]
  thermal stability z-score: -0.663
lipoamide; arsenate co-treatment: none
  thermal stability z-score: -0.376
Potassium arsenate
  thermal stability z-score: -0.708

## NOL12|V9GYY5 (UniProt V9GYY5)
lipoamide; [1]
  thermal stability z-score: 0.0645
lipoamide; arsenate co-treatment: none
  thermal stability z-score: -1.5
Potassium arsenate
  thermal stability z-score: 0.699

## RTF1 (UniProt Q92541)
lipoamide; [1]
  thermal stability z-score: 0.13
lipoamide; arsenate co-treatment: none
  thermal stability z-score: 0.0546
Potassium arsenate
  thermal stability z-score: -0.323

## QTRTD1 (UniProt Q9H974)
lipoamide; [1]
  thermal stability z-score: 0.678
lipoamide; arsenate co-treatment: none
  thermal stability z-score: -0.447
Potassium arsenate
  thermal stability z-score: -0.765

## RCN1 (UniProt Q15293)
lipoamide; [1]
  thermal stability z-score: -1.02
lipoamide; arsenate co-treatment: none
  thermal stability z-score: -0.814
Potassium arsenate
  thermal stability z-score: 0.52

## MTCH2 (UniProt Q9Y6C9)
lipoamide; [1]
  thermal stability z-score: -0.0451
lipoamide; arsenate co-treatment: none
  thermal stability z-score: 0.12
Potassium arsenate
  thermal stability z-score: 0.688

## MRPS15 (UniProt P82914)
lipoamide; [1]
  thermal stability z-score: 0.673
lipoamide; arsenate co-treatment: none
  thermal stability z-score: 0.571
Potassium arsenate
  thermal stability z-score: 0.555

## FTSJ3 (UniProt Q8IY81)
lipoamide; [1]
  thermal stability z-score: -0.198
lipoamide; arsenate co-treatment: none
  thermal stability z-score: 0.792
Potassium arsenate
  thermal stability z-score: -0.519

## PCMT1 (UniProt P22061)
lipoamide; [1]
  thermal stability z-score: 0.993
lipoamide; arsenate co-treatment: none
  thermal stability z-score: 0.908
Potassium arsenate
  thermal stability z-score: 0.245

## SHC1 (UniProt P29353)
lipoamide; [1]
  thermal stability z-score: -0.383
lipoamide; arsenate co-treatment: none
  thermal stability z-score: 0.739
Potassium arsenate
  thermal stability z-score: 0.126

## NUP160 (UniProt Q12769)
lipoamide; [1]
  thermal stability z-score: 0.198
lipoamide; arsenate co-treatment: none
  thermal stability z-score: 0.123
Potassium arsenate
  thermal stability z-score: 1.01

## MRPS31 (UniProt Q92665)
lipoamide; [1]
  thermal stability z-score: -0.961
lipoamide; arsenate co-treatment: none
  thermal stability z-score: 0.411
Potassium arsenate
  thermal stability z-score: -0.0848

## SNRPF (UniProt P62306)
Chain of UniProt P62306 (P62306 whole entry, looked up): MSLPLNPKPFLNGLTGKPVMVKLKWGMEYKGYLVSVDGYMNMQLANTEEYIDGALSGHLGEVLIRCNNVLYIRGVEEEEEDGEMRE
lipoamide; [1]
  thermal stability z-score: 0.0402
lipoamide; arsenate co-treatment: none
  thermal stability z-score: -0.072
Potassium arsenate
  thermal stability z-score: 0.116

## CFAP36 (UniProt Q96G28)
Chain of UniProt Q96G28 (Q96G28 whole entry): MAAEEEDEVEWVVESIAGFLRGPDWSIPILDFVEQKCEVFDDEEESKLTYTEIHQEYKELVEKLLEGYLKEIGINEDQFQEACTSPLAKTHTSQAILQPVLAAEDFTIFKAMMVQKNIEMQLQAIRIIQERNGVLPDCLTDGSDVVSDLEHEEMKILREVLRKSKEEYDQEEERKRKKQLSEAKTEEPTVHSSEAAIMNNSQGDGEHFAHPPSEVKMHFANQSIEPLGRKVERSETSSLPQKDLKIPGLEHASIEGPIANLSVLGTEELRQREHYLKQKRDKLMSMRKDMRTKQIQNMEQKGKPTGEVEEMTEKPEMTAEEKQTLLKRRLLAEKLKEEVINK
lipoamide; [1]
  thermal stability z-score: 0.177
lipoamide; arsenate co-treatment: none
  thermal stability z-score: 0.267
Potassium arsenate
  thermal stability z-score: 0.177

## CACUL1 (UniProt Q86Y37)
lipoamide; [1]
  thermal stability z-score: 0.0904
lipoamide; arsenate co-treatment: none
  thermal stability z-score: 0.129
Potassium arsenate
  thermal stability z-score: -0.563

## DCAKD (UniProt Q8WVC6)
lipoamide; [1]
  thermal stability z-score: -0.963
lipoamide; arsenate co-treatment: none
  thermal stability z-score: -1.05
Potassium arsenate
  thermal stability z-score: 0.214

## PPIP5K2 (UniProt O43314)
lipoamide; [1]
  thermal stability z-score: 0.258
lipoamide; arsenate co-treatment: none
  thermal stability z-score: 0.00428
Potassium arsenate
  thermal stability z-score: -0.606

## UBXN8 (UniProt O00124)
lipoamide; [1]
  thermal stability z-score: -1.43
lipoamide; arsenate co-treatment: none
  thermal stability z-score: -0.528
Potassium arsenate
  thermal stability z-score: -0.0404

## BCL2L13 (UniProt Q9BXK5)
lipoamide; [1]
  thermal stability z-score: 0.605
lipoamide; arsenate co-treatment: none
  thermal stability z-score: 0.206
Potassium arsenate
  thermal stability z-score: 0.655

## CPS1 (UniProt P31327)
lipoamide; [1]
  thermal stability z-score: -0.756
lipoamide; arsenate co-treatment: none
  thermal stability z-score: 0.095
Potassium arsenate
  thermal stability z-score: -1.39

## RPS5 (UniProt P46782)
lipoamide; [1]
  thermal stability z-score: 0.607
lipoamide; arsenate co-treatment: none
  thermal stability z-score: 0.458
Potassium arsenate
  thermal stability z-score: -0.546

## LUC7L (UniProt Q9NQ29)
lipoamide; [1]
  thermal stability z-score: -0.243
lipoamide; arsenate co-treatment: none
  thermal stability z-score: -0.433
Potassium arsenate
  thermal stability z-score: -1.2

## GRHPR (UniProt Q9UBQ7)
lipoamide; [1]
  thermal stability z-score: -0.261
lipoamide; arsenate co-treatment: none
  thermal stability z-score: 0.411
Potassium arsenate
  thermal stability z-score: 1.22

## DOCK5 (UniProt Q9H7D0)
lipoamide; [1]
  thermal stability z-score: -0.433
lipoamide; arsenate co-treatment: none
  thermal stability z-score: -0.478
Potassium arsenate
  thermal stability z-score: -0.0423

## OFD1 (UniProt O75665)
Chain of UniProt O75665 (O75665 whole entry): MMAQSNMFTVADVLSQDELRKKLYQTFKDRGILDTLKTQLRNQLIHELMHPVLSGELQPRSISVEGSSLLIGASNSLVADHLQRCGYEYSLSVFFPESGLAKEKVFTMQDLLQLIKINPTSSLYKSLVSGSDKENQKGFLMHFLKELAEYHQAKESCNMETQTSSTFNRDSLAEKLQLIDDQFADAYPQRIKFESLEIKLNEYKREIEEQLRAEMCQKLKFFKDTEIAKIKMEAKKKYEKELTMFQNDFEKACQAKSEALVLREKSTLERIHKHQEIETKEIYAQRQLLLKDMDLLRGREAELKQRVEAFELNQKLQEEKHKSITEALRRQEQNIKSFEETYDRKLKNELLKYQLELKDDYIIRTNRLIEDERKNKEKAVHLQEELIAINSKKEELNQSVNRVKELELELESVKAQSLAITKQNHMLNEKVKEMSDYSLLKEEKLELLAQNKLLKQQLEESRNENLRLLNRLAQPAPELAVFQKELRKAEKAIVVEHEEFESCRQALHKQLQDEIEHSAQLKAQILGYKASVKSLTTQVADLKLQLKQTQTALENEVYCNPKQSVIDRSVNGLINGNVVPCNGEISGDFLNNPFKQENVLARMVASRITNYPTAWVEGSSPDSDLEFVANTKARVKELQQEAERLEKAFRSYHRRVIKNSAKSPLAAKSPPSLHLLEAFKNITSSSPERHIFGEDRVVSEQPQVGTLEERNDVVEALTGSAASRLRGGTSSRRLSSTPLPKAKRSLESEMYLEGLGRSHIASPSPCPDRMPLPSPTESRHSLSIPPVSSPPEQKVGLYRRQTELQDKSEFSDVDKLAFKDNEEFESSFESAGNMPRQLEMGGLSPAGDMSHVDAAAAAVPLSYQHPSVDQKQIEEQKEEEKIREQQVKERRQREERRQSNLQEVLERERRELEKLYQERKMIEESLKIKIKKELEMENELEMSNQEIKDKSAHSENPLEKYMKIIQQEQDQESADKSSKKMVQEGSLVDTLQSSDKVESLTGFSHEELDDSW
lipoamide; [1]
  thermal stability z-score: -0.239
lipoamide; arsenate co-treatment: none
  thermal stability z-score: 0.0566
Potassium arsenate
  thermal stability z-score: -0.000259

## CDC45 (UniProt O75419)
Chain of UniProt O75419 (O75419 whole entry): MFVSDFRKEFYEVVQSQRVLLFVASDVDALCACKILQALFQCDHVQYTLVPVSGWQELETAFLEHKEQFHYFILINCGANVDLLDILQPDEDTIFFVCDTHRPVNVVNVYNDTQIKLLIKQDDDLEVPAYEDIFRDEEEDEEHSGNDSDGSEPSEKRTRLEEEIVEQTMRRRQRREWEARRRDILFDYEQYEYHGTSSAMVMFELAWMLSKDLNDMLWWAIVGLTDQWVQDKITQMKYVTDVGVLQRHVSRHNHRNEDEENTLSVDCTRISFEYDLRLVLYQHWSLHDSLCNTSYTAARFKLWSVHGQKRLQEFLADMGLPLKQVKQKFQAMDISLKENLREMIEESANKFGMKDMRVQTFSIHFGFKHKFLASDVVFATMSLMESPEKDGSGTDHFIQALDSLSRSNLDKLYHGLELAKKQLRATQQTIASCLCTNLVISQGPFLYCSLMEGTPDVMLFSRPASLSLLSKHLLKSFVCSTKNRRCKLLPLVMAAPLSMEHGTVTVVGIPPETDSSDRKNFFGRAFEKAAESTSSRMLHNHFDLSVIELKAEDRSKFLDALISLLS
lipoamide; [1]
  thermal stability z-score: 0.0843
lipoamide; arsenate co-treatment: none
  thermal stability z-score: 0.0302
Potassium arsenate
  thermal stability z-score: -0.457

## BLMH (UniProt Q13867)
Chain of UniProt Q13867 (Q13867 whole entry): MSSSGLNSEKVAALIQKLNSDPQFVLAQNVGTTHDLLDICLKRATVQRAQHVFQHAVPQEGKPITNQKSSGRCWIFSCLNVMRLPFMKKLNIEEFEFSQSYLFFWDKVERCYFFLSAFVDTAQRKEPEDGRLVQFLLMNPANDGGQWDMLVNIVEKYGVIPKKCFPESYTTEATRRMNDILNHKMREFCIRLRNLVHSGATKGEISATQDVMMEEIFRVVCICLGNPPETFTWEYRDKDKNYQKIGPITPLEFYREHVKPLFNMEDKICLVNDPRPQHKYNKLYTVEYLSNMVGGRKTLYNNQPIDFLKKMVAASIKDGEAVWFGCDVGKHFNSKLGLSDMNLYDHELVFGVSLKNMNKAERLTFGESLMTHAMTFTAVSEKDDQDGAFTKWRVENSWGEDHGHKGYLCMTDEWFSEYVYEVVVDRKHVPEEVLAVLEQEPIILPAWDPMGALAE
lipoamide; [1]
  thermal stability z-score: 0.51
lipoamide; arsenate co-treatment: none
  thermal stability z-score: 0.365
Potassium arsenate
  thermal stability z-score: 0.0746

## CYR61 (UniProt O00622)
Chain of UniProt O00622 (O00622 whole entry): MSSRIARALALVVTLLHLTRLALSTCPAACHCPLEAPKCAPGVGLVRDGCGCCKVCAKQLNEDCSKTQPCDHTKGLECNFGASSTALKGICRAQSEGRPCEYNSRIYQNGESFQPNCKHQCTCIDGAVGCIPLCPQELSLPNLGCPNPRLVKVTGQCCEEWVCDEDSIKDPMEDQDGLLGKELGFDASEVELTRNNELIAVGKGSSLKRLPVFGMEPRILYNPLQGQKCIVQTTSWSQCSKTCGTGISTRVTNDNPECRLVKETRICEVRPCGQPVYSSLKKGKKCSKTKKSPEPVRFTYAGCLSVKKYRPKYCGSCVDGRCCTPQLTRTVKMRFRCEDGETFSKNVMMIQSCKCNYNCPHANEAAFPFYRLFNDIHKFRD
lipoamide; [1]
  thermal stability z-score: -1.72
lipoamide; arsenate co-treatment: none
  thermal stability z-score: -1.47
Potassium arsenate
  thermal stability z-score: -4.51

## GAPDH (UniProt P04406)
Chain of UniProt P04406 (P04406 whole entry, looked up): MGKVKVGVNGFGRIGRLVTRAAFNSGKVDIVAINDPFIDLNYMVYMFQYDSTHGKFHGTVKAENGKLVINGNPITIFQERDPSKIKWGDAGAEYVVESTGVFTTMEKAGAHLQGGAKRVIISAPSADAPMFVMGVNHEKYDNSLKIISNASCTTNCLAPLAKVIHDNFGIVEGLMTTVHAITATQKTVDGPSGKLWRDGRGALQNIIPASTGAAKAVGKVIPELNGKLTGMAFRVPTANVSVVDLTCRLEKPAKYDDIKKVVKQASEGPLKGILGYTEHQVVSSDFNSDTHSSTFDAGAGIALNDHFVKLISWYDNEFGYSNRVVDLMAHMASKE
lipoamide; [1]
  thermal stability z-score: -1.1
lipoamide; arsenate co-treatment: none
  thermal stability z-score: -0.00491
Potassium arsenate
  thermal stability z-score: -1.5

## TIMM23 (UniProt O14925)
lipoamide; [1]
  thermal stability z-score: 0.248
lipoamide; arsenate co-treatment: none
  thermal stability z-score: -0.124
Potassium arsenate
  thermal stability z-score: 0.0795

## SURF2 (UniProt Q15527)
lipoamide; [1]
  thermal stability z-score: -0.0697
lipoamide; arsenate co-treatment: none
  thermal stability z-score: 0.247
Potassium arsenate
  thermal stability z-score: -0.529

## GCHFR (UniProt P30047)
Chain of UniProt P30047 (P30047 whole entry): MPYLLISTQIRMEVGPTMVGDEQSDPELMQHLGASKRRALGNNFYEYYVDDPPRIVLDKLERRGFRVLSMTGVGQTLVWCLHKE
lipoamide; [1]
  thermal stability z-score: -0.485
lipoamide; arsenate co-treatment: none
  thermal stability z-score: -0.374
Potassium arsenate
  thermal stability z-score: 0.0269

## CEP78 (UniProt Q5JTW2)
lipoamide; [1]
  thermal stability z-score: -0.104
lipoamide; arsenate co-treatment: none
  thermal stability z-score: -0.0338
Potassium arsenate
  thermal stability z-score: -0.165

## RAB43 (UniProt Q86YS6)
lipoamide; [1]
  thermal stability z-score: -0.0743
lipoamide; arsenate co-treatment: none
  thermal stability z-score: 1.38
Potassium arsenate
  thermal stability z-score: 1.35

## RBPJ (UniProt Q06330)
Chain of UniProt Q06330 (Q06330 whole entry, looked up): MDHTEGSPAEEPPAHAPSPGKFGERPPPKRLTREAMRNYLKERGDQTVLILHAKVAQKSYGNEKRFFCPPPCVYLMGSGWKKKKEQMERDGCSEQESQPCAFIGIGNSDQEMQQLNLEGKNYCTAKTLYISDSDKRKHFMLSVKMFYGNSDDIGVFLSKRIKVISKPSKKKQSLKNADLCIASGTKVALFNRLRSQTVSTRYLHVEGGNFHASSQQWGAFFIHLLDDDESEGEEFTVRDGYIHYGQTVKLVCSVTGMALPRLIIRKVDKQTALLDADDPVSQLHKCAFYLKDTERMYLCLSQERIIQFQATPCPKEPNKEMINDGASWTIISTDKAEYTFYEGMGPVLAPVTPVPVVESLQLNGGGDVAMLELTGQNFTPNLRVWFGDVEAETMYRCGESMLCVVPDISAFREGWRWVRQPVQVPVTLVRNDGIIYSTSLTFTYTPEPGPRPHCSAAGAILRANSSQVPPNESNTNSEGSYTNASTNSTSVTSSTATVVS
lipoamide; [1]
  thermal stability z-score: 0.252
lipoamide; arsenate co-treatment: none
  thermal stability z-score: -0.0841
Potassium arsenate
  thermal stability z-score: -0.676

## ZNF281 (UniProt Q9Y2X9)
lipoamide; [1]
  thermal stability z-score: -0.165
lipoamide; arsenate co-treatment: none
  thermal stability z-score: -0.214
Potassium arsenate
  thermal stability z-score: 0.133

## RANBP6 (UniProt O60518)
lipoamide; [1]
  thermal stability z-score: -0.296
lipoamide; arsenate co-treatment: none
  thermal stability z-score: -0.155
Potassium arsenate
  thermal stability z-score: -0.131

## C17ORF75 (UniProt Q9HAS0)
lipoamide; [1]
  thermal stability z-score: 0.0162
lipoamide; arsenate co-treatment: none
  thermal stability z-score: -0.0686
Potassium arsenate
  thermal stability z-score: -0.0267

## FLNA (UniProt P21333)
lipoamide; [1]
  thermal stability z-score: 0.22
lipoamide; arsenate co-treatment: none
  thermal stability z-score: 0.544
Potassium arsenate
  thermal stability z-score: -0.4

## MSH6 (UniProt P52701)
lipoamide; [1]
  thermal stability z-score: 0.0377
lipoamide; arsenate co-treatment: none
  thermal stability z-score: 0.218
Potassium arsenate
  thermal stability z-score: -0.142
